Data as given in patent US20010011137A1, “Use of triphenylmethyl-1,2,3-triazoles” (priority 1996, published 2001).

Clc1ccccc1C(c1ccccc1)(c1ccccc1)n1ccnn1 [Example 10, 1-(2-chlorotrityl)-1H-1,2,3-triazole]
melting point: 162 °C
